Source: patent US12472164B2, “Masitinib for the treatment of sickle cell disease” (AB SCIENCE, priority 2019, dated 2025)

Legend:
[1] = test system: SCD (HbSS mice), Townes transgenic mouse model; test: Substance P-induced vaso-occlusive crisis (VOC) occurrence and overall survival in Townes transgenic sickle mice; format: in vivo
From the text: The Townes transgenic mouse model was utilized for this study (Wu L C et al., Blood 2006; 108:1183-1188). A total of 18 mice were assigned to 3 treatment groups; namely: SCD (HbSS mice) treated with masitinib (SCD Masitinib—intervention group), untreated SCD mice (SCD—positive control group), and WT mice (WT—negative control group).
The HbSS-Townes mouse model was created on a mixed genetic background in which the murine adult α-globin genes were replaced with the human α-globin gene (genotype: Hba hα/hα) and the murine adult β-globin genes were replaced with human sickle βS- and fetal Aγ-globin gene fragments linked together (genotype: Hbb hAγβS/hAγβS) (Nguyen J, et al., Blood 2014; 124(21):4916). HbSS-Townes mice have anemia, a shortened red blood cell half-life of 2.5 days and a severe disease phenotype. Control HbAA-Townes mice were created by replacing the murine globin genes with human α-globin gene (genotype: Hba hα/hα) and linked human βA- and fetal Aγ-globins (genotype: Hbb hAγβA/hAγβA).
Mice were administered freshly prepared solutions of substance P (4 to 40 mg/kg) via intravenous injection.
Mice in the intervention group were administered masitinib at 100 mg/kg/day via gavage for 4 days prior to injection of substance P. […]
Vaso-occlusive crisis (VOC) occurrence and overall survival were analyzed in the mice. […]

[2] = test system: lung tissue of SCD (HbSS) Townes mice; test: Lung tissue histology (hematoxylin and eosin; anti-FcεRIα immunostaining) of SCD mice after substance P injection; format: in vivo; conditions: masitinib 100 mg/kg/day via gavage for 4 days prior to substance P
Experimental: The Townes transgenic mouse model was utilized for this study (Wu L C et al., Blood 2006; 108:1183-1188). A total of 18 mice were assigned to 3 treatment groups; namely: SCD (HbSS mice) treated with masitinib (SCD Masitinib—intervention group), untreated SCD mice (SCD—positive control group), and WT mice (WT—negative control group). Mice were administered freshly prepared solutions of substance P (4 to 40 mg/kg) via intravenous injection. Mice in the intervention group were administered masitinib at 100 mg/kg/day via gavage for 4 days prior to injection of substance P. Lung tissue was processed immediately after death by cervical dislocation and fixed in 10% buffered formalin. For analysis of the lung tissue cellular structure, samples were stained with hematoxylin and eosin. For analysis of mast cell infiltration, samples were stained with an anti-FcεRIα primary antibody and a fluorophore secondary antibody. The cause of death was then analyzed. […] Lung tissue sections were stained with hematoxylin and eosin. For immunofluorescence, lung tissue sections were incubated with an anti-FcεRIα primary antibody and then stained with a fluorophore secondary antibody.

Cc1ccc(NC(=O)c2ccc(CN3CCN(C)CC3)cc2)cc1Nc1nc(-c2cccnc2)cs1 [masitinib, 4-(4-methylpiperazin-1-ylmethyl)-N-[4-methyl-3-(4-pyridin-3ylthiazol-2-ylamino)phenyl]benzamide]
Overall survival (death) ([1]; SCD mice pretreated with masitinib 100 mg/kg/day via gavage for 4 days prior to injection of substance P, 83% of untreated SCD mice died in the first 3 hours (FIG. 1)): none died
Vaso-occlusive crisis (VOC) occurrence ([1]; SCD mice pretreated with masitinib 100 mg/kg/day via gavage for 4 days prior to intravenous injection of substance P, all untreated SCD mice experienced VOC): did not present any VOC
Infiltration of lung tissue by FcεRI-positive cells (mast cells) ([2]; anti-FcεRIα immunofluorescence, versus untreated SCD mice (FIGS. 2A to 2H)): to a far lesser degree
Development of acute chest syndrome (ACS) ([2]; concluded from limited FcεRI-positive cell infiltration and absent or limited edema): did not develop ACS
Lung edema ([2]; hematoxylin and eosin staining, versus untreated SCD mice): reduced
